Measurements: patent US8367401B2, “Replication competent hepatitis C virus and methods of use” (Board of Regents, The University of Texas System, priority 1999, dated 2013)

How the values were obtained:
[1] = test system: Btat2ANeo(SI) replicon (Con1 HCV) in En5-3 cells; test: Interferon suppression of SEAP secretion, Btat2ANeo(SI) replicon cell line; format: cell-based, hepatitis C virus
Procedure: (§1) Alkaline phosphatase assay. […] The luminescent signal was read using a TD-20/20 Luminometer (Turner Designs, Inc.). In most time course experiments, the culture medium was replaced every 24 hrs. Thus, the SEAP activity measured in these fluids reflected the daily production of SEAP by the cells.
(§2) Interferon treatment of cell cultures. Selected replicon-bearing cell lines were seeded into 12 well plates. The media was replaced 24 hrs later with fresh, G418 free media containing various concentrations of recombinant interferon-α2B ranging from 0 to 100 units/ml. The medium was subsequently completely removed every 24 hrs, the cells washed, and refed with fresh interferon-containing media. SEAP activity was measured in the media removed from the cells as described above.
(§3) Interferon suppression of HCV RNA replication. […] Recently seeded cell cultures were fed with media containing various concentrations of recombinant interferon-α2B ranging from 0 to 100 units/ml. The medium was subsequently removed completely at 24 hr intervals, and the cells were washed thoroughly and refed with fresh interferon-containing media. […] The decline in intracellular RNA preceded the decreases in SEAP secretion by approximately 24 hrs, most likely reflecting the kinetic delay in tat signaling of SEAP secretion.

[2] = test system: Ntat2ANeo(RG) replicon (HCV-N) in En5-3 cells; test: Interferon suppression of SEAP secretion, Ntat2ANeo(RG) replicon cell line; format: cell-based, hepatitis C virus
Procedure: as §1, §2, §3

[3] = test system: Et2AN cell line; test: SEAP secretion by Et2AN control cell line (tat2ANeo under EMCV IRES, no replicon); format: cell-based
Source text: as §1
This permits serial measurements of the kinetics of RNA amplification in single cultures of cells (FIG. 21). One potential drawback of this system is that suppression of SEAP activity by candidate antiviral compounds could result from inhibition of the activity of either the 2A protease or tat, or even (as with other published dicistronic HCV replicons) the EMCV IRES. To address this issue, we established a stably transformed cell line that constitutively expresses the tat2ANeo polyprotein under the translational control of the EMCV IRES. This cell line (Et2AN) was established by transfection of pEt2AN DNA (FIG. 16) into En5-3 cells, followed by selection with G418.

[4] = test system: En5-3 cells; test: SEAP expression from En5-3 cells without replicon; format: cell-based; conditions: interferon treatment
Source text: FIG. 22. Suppression of HCV replicon amplification by interferon-α2b. (A) SEAP activity secreted from cells supporting replication of Btat2ANeo(SI) over successive 24 hr intervals following addition of interferon to the medium. (B) SEAP secretion from Ntat2ANeo(RG) cells. Interferon concentrations were: (*) 100 units/ml; (X) 10 units/ml; (▴) 1 unit/ml; (▪) no interferon. SEAP expression from En5-3 cells without interferon treatment was also shown (♦). SEAP expression from En5-3 cells was not affected by interferon treatment.
as §1

[5] = highest concentration of interferon tested, 100 units/ml
[6] = interferon 0 to 100 units/ml, media replaced at 24 hr intervals, stable G418 resistant cell clone

## interferon-α2b
[1]; 100 units/ml
  cellular cytotoxicity: absence of demonstrable cellular cytotoxicity
[1]; [5]
  SEAP expression over time: SEAP expression declined over time
[1]; [6]
  SEAP secretion: dose-dependent inhibition of SEAP secretion
[2]; 100 units/ml
  cellular cytotoxicity: absence of demonstrable cellular cytotoxicity
[2]; [5]
  SEAP expression over time: SEAP expression declined over time
[2]; [6]
  SEAP secretion: dose-dependent inhibition of SEAP secretion
[3]; comparable concentrations of interferon
  suppression of the secretion of SEAP: no suppression
[3]; concentrations of interferon tested
  nonspecific toxicity: absence of nonspecific toxicity
[4]
  SEAP expression: not affected
